This is an account of results in patent EP0302934A1, “ALICYCLIC DICARBOXYLIC ACID DERIVATIVES AND MUSCLE RELAXANTS CONTAINING THEM AS EFFECTIVE INGREDIENTS” (NIPPON ZEON CO., LTD., priority 1987, dated 1988).

The test system of one series is ICR male mice. Briefly: Horizontal wire test. Format: in vivo. Conditions: maximum number of fallen mice out of 6 per group; 100 mg/kg-body weight orally, suspended in 0.4% aqueous carboxymethyl cellulose. The text has this:
Thereafter, at constant intervals of time, the mice were suspended by their forepaws on the metallic wire held horizontally, and the number of animals failing to hang was counted.

The test system of another series is Wister male rats. The experiment in a line: Test method using anaemic decerebrate rigidity animals. It is filed as in vivo. Conditions: 3 mg/kg body weight intravenously in polyethylene glycol; three rats per group; visually followed over 60 minutes. On the procedure:
Each of Compound 1 and Compound 3 obtained in the synthesis examples was dissolved into 100% polyethylene glycol (molecular weight ca. 400) to prepare test drugs having a concentration of 0.3%. According to the method of Fukuda et al. (Fukuda, H., Ito, T., Hashimoto, S. and Kudo, Y., Japan. J. Pharmacol., (1974) 24; 810), the rigidity was induced in Wister male rats (body weight 250 to 350 g). Thus, by ligating both the common carotid arteries and coagulating the basilarartery by means of high frequency wave, the rigidity was induced in the fore legs of the animals. Using three animals as one group, each test drug was intravenously administered to the animals so that the amount of active ingredient came to 3 mg/kg body weight. Thereafter, whether the rigidity in the fore legs of the rat was relaxed or not was visually followed over a continuous 60 minutes.

The next series in a line: in vivo. Details: species or system mice. The following applies: mouse, po. On the procedure: ICR male mice (body weight 20 to 30 g, 10 animals per one group) were used for the test.
A test drug was prepared by suspending Compound 3 into 0.4% aqueous solution of carboxymethyl cellulose, and it was orally administered.
Thereafter, the state of the animals was visually observed for 5 days. As the result, LD50 (mg/kg) was 1,000 mg/kg or more.

“Also recorded” adds a separate entry of the source. Bounds are passed on as bounds.

For the compound `CC1CCC(C)C2C(=O)N(c3cc(Cl)cc(Cl)c3)C(=O)C12` (centres unmarked) [Compound 4, N-(3' ,5'-Dichlorophenyl)-3,6-dimethyicyclo-hexane-l,2-dicarboxylic acid imide], in the series with ICR male mice, the “No. of fallen cases” value is 3.

On to `CC1C=CC(C)C(C(=O)Nc2cc(Cl)cc(Cl)c2)C1C(=O)[O-].[Na+]` (centres unmarked) [Compound 7, Sodium 2-(3',5'-Dichlorophenyl-carbamoyl)-3,6-dimethyl-4-cyclohexenecarboxylate], for which the “No. of fallen cases” value in the series on ICR male mice was 3.

Turning to “2-(3',5'-Dichlorophenylcarbamoyl)-3(6)-methyl-4-cyclohexenecarboxylic Acid [Compound 5]”, in the series on ICR male mice, the “No. of fallen cases” value is 3.

In the case of `CC1C=CC(C)C2C(=O)N(c3cc(Cl)cc(Cl)c3)C(=O)C12` (centres unmarked) [Compound 3, N-(3',5'-Dichlorophenyl)-3,6-dimethyl-4-cyclohexene-1,2-dicarboxylic acid imide], in the series on Wister male rats, the “rigidity in the fore legs relaxed or not” value is listed as “the rigidity disappeared; also recorded: particularly marked rigidity - eliminating effect”. In the series “in vivo”, this compound had an LD50 at 120 h not below 1000 mg/kg. Further, the “No. of fallen cases” value in the series with ICR male mice came to 3.

On to `CC1C=CCC2C(=O)N(c3cc(Cl)cc(Cl)c3)C(=O)C12` (centres unmarked) [Compound 1, N-(3^1,5^1-Dichlorophenyl)-3-methyl-4-cyclohexene-l,2-dicarboxylic Acid Imide], for which, in the series with Wister male rats, the “rigidity in the fore legs relaxed or not” value was “the rigidity disappeared”. The “No. of fallen cases” value in the series with ICR male mice was 5.

A word on the LD50: it is the dose expected to kill half of the subjects tested.
